# Experiments:
# SETVI = assay: greenhouse herbicidal activity, post-emergence method; assay type: in vivo, Setaria viridis; settings: application rate 0,500 kg/ha, scale 0 to 100
# Description: (§1) The culture containers used were plastic flowerpots containing loamy sand with approximately 3.0% of humus as the substrate. The seeds of the test plants were sown separately for each species.
# (§2) For the pre-emergence treatment, the active ingredients, which had been suspended or emulsified in water, were applied directly after sowing by means of finely distributing nozzles. The containers were irrigated gently to promote germination and growth and subsequently covered with transparent plastic hoods until the test plants had rooted. This cover caused uniform germination of the test plants, unless this had been impaired by the active ingredients. For the post-emergence treatment, the test plants were first grown to a height of 3 to 15 cm, depending on the plant habit, and only then treated with the active ingredients which had been suspended or emulsified in water. For this purpose, the test plants were either sown directly and grown in the same containers, or they were first grown separately as seedlings and transplanted into the test containers a few days prior to treatment.
# (§3) Depending on the species, the test plants were kept at 10-25° C. or 20-35° C., respectively. The test period extended over 2 to 4 weeks. During this time, the test plants were tended, and their response to the individual treatments was evaluated.
# (§4) Evaluation was carried out using a scale from 0 to 100. […]
# AMARE [1] = assay: greenhouse herbicidal activity, pre-emergence method; assay type: in vivo, Amaranthus retroflexus; settings: scale 0 to 100
# Description: as §1, §2, §3
# Evaluation was carried out using a scale from 0 to 100. 100 means no emergence of the test plants, or complete destruction of at least the aerial moieties, and 0 means no damage, or normal course of growth. A good herbicidal activity is given at values of 80 to 90 and a very good herbicidal activity is given at values of 90 to 100.
# The test plants used in the greenhouse experiments were of the following species: […]
# ECHCG [2] = assay: greenhouse herbicidal activity, post-emergence method; assay type: in vivo, Echinocloa crus-galli; settings: scale 0 to 100
# Description: as §1, §2, §3, §4
# ALOMY = assay: as above; assay type: in vivo, Alopercurus myosuroides; settings: application rate 0,500 kg/ha, scale 0 to 100
# Description: as §1, §2, §3, §4
# AMARE [3] = assay: as above; assay type: in vivo, Amaranthus retroflexus; settings: application rate 1,000 kg/ha, scale 0 to 100
# Description: as §1, §2, §3, §4
# APESV = assay: greenhouse herbicidal activity, pre-emergence method; assay type: in vivo, Apera spica-venti; settings: application rate 0,500 kg/ha, scale 0 to 100
# Description: as §1, §2, §3, §4
# AVEFA = assay: greenhouse herbicidal activity, post-emergence method; assay type: in vivo, Avena fatua; settings: scale 0 to 100
# Description: as §1, §2, §3, §4
# SETFA = assay: greenhouse herbicidal activity, pre-emergence method; assay type: in vivo, Setaria faberi; settings: application rate 1,000 kg/ha, scale 0 to 100
# Description: as §1, §2, §3, §4
# ECHCG [4] = assay: as above; assay type: in vivo, Echinocloa crus-galli; settings: scale 0 to 100
# Description: as §1, §2, §3, §4
smiles,measurement,setting,value
COC(=O)C1CC(NC(=O)C2(C)ON=C(c3cc(F)cc(F)c3)O2)C1 (centres unmarked) [compound 16],herbicidal activity against SETVI,SETVI,very good (a very good herbicidal activity is given at values of 90 to 100)
COC(=O)C1C=CC(NC(=O)C2(C)ON=C(c3cc(F)cc(F)c3)O2)C1 (centres unmarked) [compound 18],herbicidal activity against AMARE,"AMARE [1]; application rate 1,000 kg/ha",very good (a very good herbicidal activity is given at values of 90 to 100)
COC(=O)CC(C)NC(=O)C1(C)ON=C(c2cc(Cl)cc(Cl)c2)O1 (centres unmarked) [compound 11],herbicidal activity against ECHCG,"ECHCG [2]; application rate 0,500 kg/ha",very good (a very good herbicidal activity is given at values of 90 to 100)
"COC(=O)C[C@H](C)NC(=O)C1(C(F)(F)F)ON=C(c2cc(Cl)cc(Cl)c2)O1 (stereo partly drawn) [compound 13, methyl (3S)-3-[[3-(3,5-dichlorophenyl)-5-(trifluoromethyl)-1,4,2-dioxazole-5-carbonyl]amino]butanoate]",herbicidal activity against AMARE,"AMARE [1]; application rate 0,500 kg/ha",very good (a very good herbicidal activity is given at values of 90 to 100)
same,herbicidal activity against ALOMY,ALOMY,good (A good herbicidal activity is given at values of 80 to 90)
C=CC1(C(=O)NC(C)CC(=O)OC)ON=C(c2cc(Cl)cc(Cl)c2)O1 (centres unmarked) [compound 110],herbicidal activity against AMARE,"AMARE [1]; application rate 1,000 kg/ha",good (A good herbicidal activity is given at values of 80 to 90)
same,herbicidal activity against AMARE,AMARE [3],good (A good herbicidal activity is given at values of 80 to 90)
COC(=O)CCCNC(=O)C1(C)ON=C(c2cc(Cl)cc(Cl)c2)O1 (centres unmarked) [compound 12],herbicidal activity against APESV,APESV,good (A good herbicidal activity is given at values of 80 to 90)
same,herbicidal activity against AVEFA,"AVEFA; application rate 0,500 kg/ha",good (A good herbicidal activity is given at values of 80 to 90)
COC(=O)C1C=CC(NC(=O)C2(C(F)(F)F)ON=C(c3cc(Cl)cc(Cl)c3)O2)C1 (centres unmarked) [compound 19],herbicidal activity against AVEFA,"AVEFA; application rate 0,250 kg/ha",very good (a very good herbicidal activity is given at values of 90 to 100)
CC(CC(=O)O)NC(=O)C1(C)ON=C(c2cc(Cl)cc(Cl)c2)O1 (centres unmarked) [compound 17],herbicidal activity against SETFA,SETFA,very good (a very good herbicidal activity is given at values of 90 to 100)
same,herbicidal activity against ECHCG,"ECHCG [4]; application rate 1,000 kg/ha",good (A good herbicidal activity is given at values of 80 to 90)
C=CC1(C(=O)NC2C=CC(C(=O)OC)C2)ON=C(c2cc(Cl)cc(Cl)c2)O1 (centres unmarked) [compound 111],herbicidal activity against ECHCG,"ECHCG [2]; application rate 0,250 kg/ha",very good (a very good herbicidal activity is given at values of 90 to 100)
same,herbicidal activity against ECHCG,"ECHCG [4]; application rate 0,250 kg/ha",very good (a very good herbicidal activity is given at values of 90 to 100)
